According to patent US9446146B2, “Methods and agents for improving targeting of CD138 expressing tumor cells” (BIOTEST AG, priority 2007, dated 2016):

B1: huC242-DM4 (conjugate, chains of the INN, looked up)
VH: QVQLVQSGAEVKKPGETVKISCKASDYTFTYYGMNWVKQAPGQGLKWMGWIDTTTGEPTYAQKFQGRIAFSLETSASTAYLQIKSLKSEDTATYFCARRGPYNWYFDVWGQGTTVTVSS
VL: DIVMTQSPLSVPVTPGEPVSISCRSSKSLLHSNGNTYLYWFLQRPGQSPQLLIYRMSNLVSGVPDRFSGSGSGTAFTLRISRVEAEDVGVYYCLQHLEYPFTFGPGTKLELK
modifications: DM4 maytansinoid payload

Experiments:
MOLP-8 tumor xenografts = experiment: Bulky MOLP-8 tumor model (Part II / Xenograft mouse experiments B); format: in vivo, SCID mice; conditions: 450 μg/kg dose; mean time to reach 160 mm^3 minus control
Description: In a second set of experiments, MOLP-8 cells (1.5×10^7 cells per mouse), suspended in a 50:50 mixture of serum free media and matrigel were injected subcutaneously in the area under the right shoulder in 100 μl. Tumor volumes reached about 80 mm^3 at day 11 and the mean of the controls was about 750 mm^3 at day 25, post cell inoculation. […] Each mouse in the control group (n=6) received 0.2 ml of sterile PBS administered into the lateral tail vein (i.v.) in a bolus injection. All treatment doses were based on conjugated maytansinoid. […] Mice were randomized into eleven groups (n=6) by tumor volume using the LabCat Program. The tumor volumes ranged from 40.0 to 152.5 mm^3. The mice were dosed based on the individual body weight.
Tumor size was measured twice per week in three dimensions using the LabCat System (Tumor Measurement and Tracking, Innovative Programming Associated, Inc., Princeton, N.J.).
In this set of experiments, eighty-five mice were inoculated with MOLP-8 cells (1.5×10^7 cells/mouse) subcutaneously in the right shoulder. […] Sixty-six SCID mice bearing bulky MOLP-8 tumors with a mean tumor volume of about 80 mm^3 were randomized into eleven treatment groups (n=6).

[1] = system: MOLP-8 human multiple myeloma xenografts; experiment: Xenograft mouse experiments A Part I, MOLP-8, single iv bolus; format: in vivo, CB.17 SCID mice; conditions: for tumor growth compared with PBS-treated animals: single iv bolus 250 μg/kg (nBT062 antibody […])
Description: In these mice, subcutaneous tumors were established (female CB.17 SCID mice) by inoculation with MOLP-8 cell suspensions. Treatment with a single bolus intravenous injection was conducted when tumor volumes reached an average 113 mm^3. Changes in tumor volume and body weight were monitored twice per week.
Each mouse was inoculated with 1×10^7 MOLP-8 cells subcutaneously into the area under the right shoulder. The total volume was 0.2 ml per mouse, in which the ratio of serum-free medium to matrigel (BD Bioscience, Bedford, Mass.) was 1/1 (v/v). Prior to treatment, the xenograft tumors were monitored daily and were allowed to become established.
Eleven days after tumor cell inoculation, 42 mice were selected based on tumor volumes and body weights. […] The forty-two mice were randomly divided into seven groups (A-G) of six animals each based on tumor volume.
Each of six mice in Group A received 200 μl of PBS as vehicle control.
All agents were intravenously administered as a single bolus injection through a lateral tail vein with a 1 ml syringe fitted with a 27 gauge, ½ inch needle.

| Molecule | TGD* (MOLP-8 tumor xenografts) | homogeneity of anti-tumor activity in individual mice ([1]; single iv 250 μg/kg, FIG. 9) | tumor growth compared with PBS-treated animals [1] |
| --- | --- | --- | --- |
| nBT062-DM1 | 18 days | – | – |
| B-B4-SPP-DM1 | – | more heterogeneously and therefore less predicable | marked delay in tumor growth |
| COc1cc2cc(c1Cl)N(C)C(=O)C[C@H](OC(=O)[C@H](C)N(C)C(=O)CCC(C)(C)S)[C@]1(C)O[C@H]1[C@H](C)[C@@H]1C[C@@](O)(NC(=O)O1)[C@H](OC)/C=C/C=C(\C)C2 [DM4, N^2′-deacetyl-N^2′-(4-methyl-4-mercapto-1-oxopentyl)-maytansine] | – | – | did not cause any significant inhibition of tumor growth |
| B1 | – | – | did not cause any significant inhibition of tumor growth |
